The record followed here is ChEMBL document CHEMBL4368915, “Synthesis and Biological Investigation of Phenothiazine-Based Benzhydroxamic Acids as Selective Histone Deacetylase 6 Inhibitors” (J Med Chem, 2019).

Data set [1] deals with Histone deacetylase 4 (Homo sapiens) (UniProt P56524). The data set can be described thus: Inhibition of recombinant N-terminal GST/His-tagged human HDAC4 (627 to 1084 residues) expressed in baculovirus expression system at 10 uM using fluorogenic ZMTFAL as substrate incubated for 90 mins by fluorescence assay relative to control.
Data set [2] can be described thus: Stability in human liver microsomes assessed as compound remaining at 2 uM measured up to 20 mins by LC-MS/MS analysis. Type of data set: ADME, Microsome. On the technique in general: Microsomes from liver hold many membrane-bound enzymes, among them those of drug oxidation.
Data set [3] addresses T1, Histone deacetylase 8 (Homo sapiens, UniProt Q9BY41).
T1 sequence (Q9BY41 whole entry): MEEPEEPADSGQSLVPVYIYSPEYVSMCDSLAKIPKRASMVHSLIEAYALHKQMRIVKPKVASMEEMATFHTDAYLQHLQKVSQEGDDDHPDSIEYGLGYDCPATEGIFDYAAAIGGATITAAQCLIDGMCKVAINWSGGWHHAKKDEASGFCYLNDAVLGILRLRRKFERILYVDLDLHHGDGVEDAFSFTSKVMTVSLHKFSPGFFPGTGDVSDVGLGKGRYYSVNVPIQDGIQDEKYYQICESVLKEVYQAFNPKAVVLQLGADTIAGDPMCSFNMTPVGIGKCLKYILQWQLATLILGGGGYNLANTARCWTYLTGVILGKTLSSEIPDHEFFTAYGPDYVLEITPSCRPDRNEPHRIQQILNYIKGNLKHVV

The test system of data set [4] is T-24. The data set can be described thus: Antiproliferative activity against human T24 cells assessed as inhibition of cell proliferation at 10 to 100 uM after 72 hrs by CellTiter blue-reagent based assay. Type of data set: functional. (In general: The colour change of resazurin is a common sign of viable cells or microbes.)
Data set [5] has as its target CYP2C9 (Homo sapiens, UniProt P11712). Nature of the data set: Inhibition of human CYP2C9 in human liver microsomes at 10 uM relative to control. Type of data set: ADME.
For data set [6], the target named is T2, CYP1A2 (Homo sapiens, UniProt P05177).
T2 sequence (P05177 whole entry): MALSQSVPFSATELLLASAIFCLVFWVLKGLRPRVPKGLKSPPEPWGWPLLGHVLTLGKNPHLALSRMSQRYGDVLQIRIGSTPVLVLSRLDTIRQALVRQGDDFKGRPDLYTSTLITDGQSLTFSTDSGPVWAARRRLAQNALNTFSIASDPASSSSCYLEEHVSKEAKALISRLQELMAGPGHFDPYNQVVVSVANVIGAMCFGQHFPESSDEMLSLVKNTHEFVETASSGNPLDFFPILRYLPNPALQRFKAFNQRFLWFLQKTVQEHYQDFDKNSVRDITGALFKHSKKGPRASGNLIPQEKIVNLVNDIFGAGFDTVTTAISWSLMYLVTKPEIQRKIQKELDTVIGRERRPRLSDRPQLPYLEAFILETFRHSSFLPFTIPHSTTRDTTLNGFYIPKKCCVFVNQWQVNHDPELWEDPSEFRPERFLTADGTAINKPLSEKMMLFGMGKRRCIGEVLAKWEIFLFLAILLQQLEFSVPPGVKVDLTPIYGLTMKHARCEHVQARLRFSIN
Nature of the data set: Inhibition of human CYP1A2 in human liver microsomes at 10 uM relative to control. Type of data set: ADME.

The subject of data set [7] is T-24. The data set can be described thus: Synergistic potentiation of Bortezomib-induced antiproliferative activity against human T24 cells assessed as effect on cell index, at 1 uM incubated for 24 hrs by cell impedance based assay. Type of data set: functional.
For data set [8], the system named is HepaRG. Nature of the data set: Cytotoxicity against human HepaRG cells assessed as cell viability at 100 uM after 24 hrs by CellTiter blue-reagent based assay relative to control. As to conditions: heparg, 24 h, 100 µM.
The test system of data set [9] is Huh-7. Nature of the data set: Antiproliferative activity against human HuH7 cells assessed as inhibition of cell proliferation at 10 to 100 uM after 72 hrs by CellTiter blue-reagent based assay. Type of data set: functional.
For data set [10], the system named is MDA-MB-231. The data set can be described thus: Antiproliferative activity against human MDA-MB-231 cells assessed as inhibition of cell proliferation at 10 to 100 uM after 72 hrs by CellTiter blue-reagent based assay. Type of data set: functional.
Data set [11] concerns the target CYP2C19 (Homo sapiens, UniProt P33261). The data set can be described thus: Inhibition of human CYP2C19 in human liver microsomes at 10 uM relative to control. Type of data set: ADME.
Data set [12] has as its target Histone deacetylase 1 (Homo sapiens, UniProt Q13547).
The target of data set [13] is CYP2D6 (Homo sapiens, UniProt P10635). Nature of the data set: Inhibition of human CYP2D6 in human liver microsomes at 10 uM relative to control. Type of data set: ADME.
Data set [14] in a line: Half life in human liver microsomes at 2 uM by LC-MS/MS analysis. Type of data set: ADME, Microsome.
Data set [15] can be described thus: Intrinsic clearance in human liver microsomes at 2 uM by LC-MS/MS analysis. Type of data set: ADME, Microsome.

The source made the active and inactive calls. No cut-off for these calls is given here. Where only a bound is given, the exact number is not on record here.

Histone deacetylase 4 (Homo sapiens), sequence (P56524 whole entry, the tested form may be a part): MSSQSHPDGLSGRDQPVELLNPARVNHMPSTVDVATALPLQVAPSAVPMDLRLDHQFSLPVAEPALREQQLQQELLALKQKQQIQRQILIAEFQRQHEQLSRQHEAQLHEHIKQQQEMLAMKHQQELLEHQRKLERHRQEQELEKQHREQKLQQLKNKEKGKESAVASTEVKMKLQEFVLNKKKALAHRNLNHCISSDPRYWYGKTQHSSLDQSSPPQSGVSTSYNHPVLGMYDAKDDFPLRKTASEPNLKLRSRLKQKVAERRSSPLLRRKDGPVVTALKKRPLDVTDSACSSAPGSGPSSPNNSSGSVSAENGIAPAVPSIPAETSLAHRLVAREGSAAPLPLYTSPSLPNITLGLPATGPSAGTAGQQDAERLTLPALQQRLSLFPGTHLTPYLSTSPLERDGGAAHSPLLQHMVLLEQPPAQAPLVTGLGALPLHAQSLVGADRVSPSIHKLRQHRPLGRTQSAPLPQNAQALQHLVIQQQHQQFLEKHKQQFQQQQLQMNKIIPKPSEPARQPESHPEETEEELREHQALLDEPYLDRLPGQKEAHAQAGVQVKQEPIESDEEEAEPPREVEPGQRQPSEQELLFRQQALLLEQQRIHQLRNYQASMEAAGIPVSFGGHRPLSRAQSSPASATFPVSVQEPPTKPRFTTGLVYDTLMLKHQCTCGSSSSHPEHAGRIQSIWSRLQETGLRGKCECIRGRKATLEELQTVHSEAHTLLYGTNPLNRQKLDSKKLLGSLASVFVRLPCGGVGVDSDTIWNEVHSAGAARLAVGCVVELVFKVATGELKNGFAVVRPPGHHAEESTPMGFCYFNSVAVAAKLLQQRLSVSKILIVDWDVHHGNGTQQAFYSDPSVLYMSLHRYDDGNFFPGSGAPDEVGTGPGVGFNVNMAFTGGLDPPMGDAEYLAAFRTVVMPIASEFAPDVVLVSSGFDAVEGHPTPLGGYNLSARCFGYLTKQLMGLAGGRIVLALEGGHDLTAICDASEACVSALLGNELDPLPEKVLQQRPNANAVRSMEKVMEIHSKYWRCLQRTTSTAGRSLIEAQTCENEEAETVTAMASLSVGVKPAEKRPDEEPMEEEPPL
CYP2D6, sequence (P10635 whole entry): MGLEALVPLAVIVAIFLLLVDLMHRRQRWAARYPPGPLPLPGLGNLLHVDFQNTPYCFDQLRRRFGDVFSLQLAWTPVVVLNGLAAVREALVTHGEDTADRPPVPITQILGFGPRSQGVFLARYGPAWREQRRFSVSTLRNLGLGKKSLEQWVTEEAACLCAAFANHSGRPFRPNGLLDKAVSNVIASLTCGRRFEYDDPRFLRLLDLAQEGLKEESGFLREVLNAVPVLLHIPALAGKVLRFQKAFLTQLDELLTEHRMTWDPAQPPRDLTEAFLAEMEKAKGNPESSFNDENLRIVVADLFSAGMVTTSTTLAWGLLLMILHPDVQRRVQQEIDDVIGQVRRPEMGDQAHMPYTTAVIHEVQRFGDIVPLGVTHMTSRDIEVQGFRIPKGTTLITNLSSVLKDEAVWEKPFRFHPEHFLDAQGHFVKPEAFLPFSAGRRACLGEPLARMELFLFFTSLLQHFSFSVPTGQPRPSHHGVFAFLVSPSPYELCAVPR
CYP2C9, sequence (P11712 whole entry): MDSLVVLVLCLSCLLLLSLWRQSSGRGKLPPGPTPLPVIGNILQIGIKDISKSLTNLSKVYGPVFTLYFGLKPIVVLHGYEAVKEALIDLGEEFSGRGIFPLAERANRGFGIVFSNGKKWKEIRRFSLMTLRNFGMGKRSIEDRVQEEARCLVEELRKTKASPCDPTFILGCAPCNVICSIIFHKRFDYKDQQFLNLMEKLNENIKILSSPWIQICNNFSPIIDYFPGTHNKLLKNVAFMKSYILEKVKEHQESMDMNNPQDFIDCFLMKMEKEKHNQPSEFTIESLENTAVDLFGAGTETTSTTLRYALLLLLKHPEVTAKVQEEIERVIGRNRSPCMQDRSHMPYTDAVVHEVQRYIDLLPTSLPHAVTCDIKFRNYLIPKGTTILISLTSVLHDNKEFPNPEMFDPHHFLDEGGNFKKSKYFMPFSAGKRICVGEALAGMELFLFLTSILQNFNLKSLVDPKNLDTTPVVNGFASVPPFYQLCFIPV
Histone deacetylase 1, sequence (Q13547 whole entry): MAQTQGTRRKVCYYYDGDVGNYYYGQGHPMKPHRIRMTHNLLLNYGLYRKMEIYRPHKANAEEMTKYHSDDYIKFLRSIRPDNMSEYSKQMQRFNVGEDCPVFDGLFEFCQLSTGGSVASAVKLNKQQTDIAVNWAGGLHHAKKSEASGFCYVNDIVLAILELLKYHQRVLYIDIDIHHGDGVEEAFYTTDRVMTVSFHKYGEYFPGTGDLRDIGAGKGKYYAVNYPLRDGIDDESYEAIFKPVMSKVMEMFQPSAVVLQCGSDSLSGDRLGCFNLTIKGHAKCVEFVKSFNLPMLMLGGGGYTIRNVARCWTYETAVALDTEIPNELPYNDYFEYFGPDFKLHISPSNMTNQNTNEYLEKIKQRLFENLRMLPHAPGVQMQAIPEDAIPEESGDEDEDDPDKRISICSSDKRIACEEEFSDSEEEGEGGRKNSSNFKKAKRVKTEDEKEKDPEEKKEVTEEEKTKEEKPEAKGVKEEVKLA
CYP2C19, sequence (P33261 whole entry): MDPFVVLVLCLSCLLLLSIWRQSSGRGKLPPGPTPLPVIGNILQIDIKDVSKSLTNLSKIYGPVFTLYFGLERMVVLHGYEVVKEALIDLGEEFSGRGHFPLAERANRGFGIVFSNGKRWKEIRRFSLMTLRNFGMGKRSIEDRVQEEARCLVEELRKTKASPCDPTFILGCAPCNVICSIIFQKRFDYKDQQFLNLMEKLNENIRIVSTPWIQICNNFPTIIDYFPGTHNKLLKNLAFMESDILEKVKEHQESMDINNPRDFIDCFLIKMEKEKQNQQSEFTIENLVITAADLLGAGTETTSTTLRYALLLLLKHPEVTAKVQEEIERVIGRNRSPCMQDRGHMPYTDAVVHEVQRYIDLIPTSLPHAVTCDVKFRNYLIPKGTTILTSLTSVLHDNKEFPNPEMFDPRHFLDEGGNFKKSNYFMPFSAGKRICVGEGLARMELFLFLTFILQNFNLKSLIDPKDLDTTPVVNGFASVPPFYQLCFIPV

Consider `O=C(NO)c1ccc(CN2c3ccccc3Sc3cccnc32)cc1`, for which the inhibition in data set [1] is under 20%. The Stability result in data set [2] was “Stable”. Also, the IC50 in data set [3] is 3.1 µM; in data set [12] it was 2.69 µM. In addition, the inhibition result in data set [4], in data set [9] and in data set [10] was “Active” each time. For the same molecule, the inhibition at 10 µM was 3.4% in data set [5], 15.2% in [6], 27.7% in data set [11] and 12% in [13]. Further, in [7], the result was inactive. Further, the Activity entry in data set [8] is given as “Non-Toxic”. In data set [14], this molecule displayed a t1/2 of 2.47 h. Besides, in [15], the CLH amounted to 11 µL/min/mg.

As usually defined, the inhibition is how much of the control response was suppressed. By IC50 is commonly meant the point on the concentration scale where inhibition reaches its midpoint. The low end stands for greater potency in that assay, the high end for weaker potency in that assay.
